SMILES strings stand for the structures.

Experiment [1] has as its target T1, ER-α in MCF-7 cells (Homo sapiens, UniProt P03372).
T1 sequence (P03372 1-595): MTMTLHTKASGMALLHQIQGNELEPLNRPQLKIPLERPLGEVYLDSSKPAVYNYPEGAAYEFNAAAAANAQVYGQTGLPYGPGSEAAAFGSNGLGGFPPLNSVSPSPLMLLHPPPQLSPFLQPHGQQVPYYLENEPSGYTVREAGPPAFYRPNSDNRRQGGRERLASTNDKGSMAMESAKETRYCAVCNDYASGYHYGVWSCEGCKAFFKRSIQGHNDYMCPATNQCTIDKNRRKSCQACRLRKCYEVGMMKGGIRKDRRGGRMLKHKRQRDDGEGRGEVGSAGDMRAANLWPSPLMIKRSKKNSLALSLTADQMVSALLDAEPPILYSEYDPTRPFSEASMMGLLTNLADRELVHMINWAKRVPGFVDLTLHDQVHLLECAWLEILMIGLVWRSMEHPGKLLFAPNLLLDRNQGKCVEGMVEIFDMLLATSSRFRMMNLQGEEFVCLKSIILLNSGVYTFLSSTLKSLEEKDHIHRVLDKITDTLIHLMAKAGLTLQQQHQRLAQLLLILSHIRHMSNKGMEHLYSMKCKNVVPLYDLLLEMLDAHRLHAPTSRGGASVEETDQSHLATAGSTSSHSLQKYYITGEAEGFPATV
The experiment in a line: Breast cancer cell ER-α in cell western assay (SP1). It counts as cell-based. Also noted: endogenous in cells; host or cells: MCF-7. Particulars: 4 or 24 hr post compound addition; for Emax: MCF7, SP1 antibody, read-out: ER-α In Cell Western Assay (SP1) Max Response; for DC50: SP1 antibody, read-out: ER-α In Cell Western Assay (SP1) IC50. In outline: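 Read-out is infrared in-cell western: SP1-detected ER intensity at 800 nm divided by DRAQ5 DNA intensity at 700 nm, relative to untreated wells ×100.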

Experiment [2] concerns MCF-7 cells. The experiment can be described thus: Breast cancer cell viability assay (CellTiter-Glo, 5 days). Format: cell-based. Particulars: 5 days' compound exposure; for IC50: Homo sapiens, MCF7, 120 h. The procedure, abridged: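 MCF-7 cells, 320 per well in RPMI with 10% FBS and 20 mM HEPES, adhered overnight, then exposed 5 days to an eleven-point semilog dilution (final 0.3-0.000003 μM). CellTiter-Glo luminescence read; % viability = (sample − cell-free background)/(untreated − background) × 100.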
For orientation: ATP-based viability assays read luminescence as a measure of living cells.

In general, IC50 refers to the concentration that gives 50% inhibition. Low values mean greater potency in that assay, high ones weaker potency in that assay. Turning to `CC/C(=C(/c1ccc(/C=C/C(=O)O)cc1)c1ccc2scnc2c1)c1ccccc1Cl` [Compound 280, (E)-3-(4-((E)-1-(Benzo[d]thiazol-5-yl)-2-(2-chlorophenyl)but-1-en-1-yl)phenyl)acrylic acid], in experiment [1], the Emax was at least 40% and the DC50 is at most 100 nM. Moreover, in experiment [2], the “MCF7 Viability Assay Max Response” value is recorded as “++ (++ = a single % value ≧ 40%)” and the IC50 is at most 100 nM.
Regarding `CC/C(=C(/c1ccc(/C=C/C(=O)O)cc1)c1ccc2c(cnn2C(C)=O)c1)c1ccc(F)cc1Cl` [Compound 403, (E)-3-(4-((E)-1-(1-Acetyl-1H-indazol-5-yl)-2-(2-chloro-4-fluorophenyl)but-1-en-1-yl)phenyl)acrylic acid], in experiment [1], the Emax was at least 40% and the DC50 is at most 100 nM. Further, in experiment [2], the “MCF7 Viability Assay Max Response” value is listed as “++ (++ = a single % value ≧ 40%)” and the half-maximal inhibitory concentration (IC50) was at most 100 nM.
Regarding `CC/C(=C(/c1ccc(/C=C/C(=O)O)cc1)c1ccn2cncc2c1)c1ccccc1` [Compound 135, (E)-3-(4-((E)-1-(Imidazo[1,5-a]pyridin-7-yl)-2-phenylbut-1-en-1-yl)phenyl)acrylic acid], in experiment [1], the Emax was at least 40% and the DC50 was above 100 nM. Besides, in experiment [2], the “MCF7 Viability Assay Max Response” value is on record as “+ (+ = a single % value < 40%)” and the IC50 was at most 100 nM.
Turning to `CC/C(=C(/c1ccc(/C=C/C(=O)O)cc1)c1ccc2[nH]ncc2c1F)c1ccncc1Cl` [Compound 224, (E)-3-(4-((E)-2-(3-Chloropyridin-4-yl)-1-(4-fluoro-1H-indazol-5-yl)but-1-en-1-yl)phenyl)acrylic acid], in experiment [1], the Emax was at least 40% and the DC50 is at most 100 nM. Also, in experiment [2], the “MCF7 Viability Assay Max Response” value is recorded as “++ (++ = a single % value ≧ 40%)” and the IC50 was at most 100 nM.
For `CC/C(=C(/c1ccc(/C=C/C(=O)O)cc1)c1ccc2nccn2c1)c1ccccc1` [Compound 126, (E)-3-(4-((E)-1-(Imidazo[1,2-a]pyridin-6-yl)-2-phenylbut-1-en-1-yl)phenyl)acrylic acid], in experiment [1], the Emax is at least 40% and the DC50 is at most 100 nM. Besides, in experiment [2], the “MCF7 Viability Assay Max Response” value is “++ (++ = a single % value ≧ 40%)” and the IC50 was above 100 nM.
As for `CCCCCOc1ccc(/C(CC)=C(\c2ccc(/C=C/C(=O)O)cc2)c2ccc3[nH]ncc3c2)cc1` [Compound 356, (E)-3-(4-((E)-1-(1H-Indazol-5-yl)-2-(4-(pentyloxy)phenyl)but-1-en-1-yl)phenyl)acrylic acid], in experiment [1], the Emax was at least 40% and the DC50 is at most 100 nM. For the same compound, in experiment [2], the “MCF7 Viability Assay Max Response” value was “++ (++ = a single % value ≧ 40%)” and the IC50 was above 100 nM.
`CC/C(=C(/c1ccc(/C=C/C(=O)O)cc1)c1ccc2[nH]ncc2c1F)c1ccc(Oc2cnccn2)cc1` [Compound 161, (E)-3-(4-((E)-1-(4-Fluoro-1H-indazol-5-yl)-2-(4-(pyrazin-2-yloxy)phenyl)but-1-en-1-yl)phenyl)acrylic acid]: in experiment [1], the Emax was at least 40% and the DC50 was at most 100 nM. In experiment [2], the “MCF7 Viability Assay Max Response” value was “++ (++ = a single % value ≧ 40%)” and the IC50 was at most 100 nM.
In the case of `CC/C(=C(/c1ccc(/C=C/C(=O)O)cc1)c1ccc2[nH]ncc2c1)c1cscc1C` [Compound 223, (E)-3-(4-((E)-1-(1H-Indazol-5-yl)-2-(4-methylthiophen-3-yl)but-1-en-1-yl)phenyl)acrylic acid], the Emax in experiment [1] is at least 40%. In experiment [2], the “MCF7 Viability Assay Max Response” value is listed as “++ (++ = a single % value ≧ 40%)” and the IC50 was at most 100 nM.
As for `CC/C(=C(/c1ccc(/C=C/C(=O)O)cc1)c1ccc2scnc2c1)c1cccc(Oc2cnccn2)c1` [Compound 301, (E)-3-(4-((E)-1-(Benzo[d]thiazol-5-yl)-2-(3-(pyrazin-2-yloxy)phenyl)but-1-en-1-yl)phenyl)acrylic acid], in experiment [1], the Emax is at least 40% and the DC50 was at most 100 nM. Moreover, in experiment [2], the “MCF7 Viability Assay Max Response” value is reported as “++ (++ = a single % value ≧ 40%)” and the IC50 was above 100 nM.
The corresponding values for `CC/C(=C(/c1ccc(/C=C/C(=O)O)cc1)c1cccc2[nH]c(=O)ccc12)c1ccccc1` [Compound 102, (E)-3-(4-((E)-1-(2-Oxo-1,2-dihydroquinolin-5-yl)-2-phenylbut-1-en-1-yl)phenyl)acrylic acid] are at least 40%, above 100 nM, “+ (+ = a single % value < 40%)” and above 100 nM.
The corresponding values for `CC/C(=C(/c1ccc(/C=C/C(=O)O)cc1)c1ccc2[nH]nc(F)c2c1)c1ccncc1Cl` [Compound 306, (E)-3-(4-((E)-2-(3-Chloropyridin-4-yl)-1-(3-fluoro-1H-indazol-5-yl)but-1-en-1-yl)phenyl)acrylic acid] are at least 40%, at most 100 nM, “++ (++ = a single % value ≧ 40%)” and at most 100 nM.
On to `CC/C(=C(/c1ccc(/C=C/C(=O)O)cc1)c1ccc2[nH]ncc2c1F)c1cccc(Oc2ccc(S(C)(=O)=O)nc2)c1` [Compound 378, (E)-3-(4-((E)-1-(4-Fluoro-1H-indazol-5-yl)-2-(3-((6-(methylsulfonyl)pyridin-3-yl)oxy)phenyl)but-1-en-1-yl)phenyl)acrylic acid], for which, in experiment [1], the Emax was at least 40% and the DC50 was at most 100 nM. In experiment [2], the “MCF7 Viability Assay Max Response” value is on record as “++ (++ = a single % value ≧ 40%)” and the IC50 was at most 100 nM.
Take `CC/C(=C(/c1ccc(/C=C/C(=O)O)cc1)c1ccn2nncc2c1)c1ccccc1` [Compound 138, (E)-3-(4-((E)-1-([1,2,3]Triazolo[1,5-a]pyridin-5-yl)-2-phenylbut-1-en-1-yl)phenyl)acrylic acid]: in experiment [1], the Emax was at least 40% and the DC50 is above 100 nM. Moreover, in experiment [2], the “MCF7 Viability Assay Max Response” value was “+ (+ = a single % value < 40%)” and the IC50 is above 100 nM.
As for `CC/C(=C(/c1ccc(/C=C/C(=O)O)cc1)c1ccn2nccc2c1)c1ccccc1` [Compound 125, (E)-3-(4-((E)-2-Phenyl-1-(pyrazolo[1,5-a]pyridin-5-yl)but-1-en-1-yl)phenyl)acrylic acid], in experiment [1], the Emax is at least 40% and the DC50 is above 100 nM. In experiment [2], the “MCF7 Viability Assay Max Response” value is given as “++ (++ = a single % value ≧ 40%)” and the IC50 was above 100 nM.
As for `CC/C(=C(/c1ccc(/C=C/C(=O)O)cc1)c1cnc2[nH]ncc2c1)c1ccccc1` [Compound 67, (E)-3-(4-((E)-2-Phenyl-1-(1H-pyrazolo[3,4-b]pyridin-5-yl)but-1-en-1-yl)phenyl)acrylic acid], in experiment [1], the Emax was at least 40% and the DC50 was above 100 nM. Also, in experiment [2], the “MCF7 Viability Assay Max Response” value is given as “++ (++ = a single % value ≧ 40%)” and the IC50 is above 100 nM.
In the case of `CC/C(=C(/c1ccc(/C=C/C(=O)O)cc1)c1ccc2[nH]ncc2c1)c1cccc(Oc2cccc(S(C)(=O)=O)c2)c1` [Compound 321, (E)-3-(4-((E)-1-(1H-Indazol-5-yl)-2-(3-(3-(methylsulfonyl)phenoxy)phenyl)but-1-en-1-yl)phenyl)acrylic acid], in experiment [1], the Emax was at least 40% and the DC50 was at most 100 nM. In experiment [2], the “MCF7 Viability Assay Max Response” value is recorded as “++ (++ = a single % value ≧ 40%)” and the IC50 was at most 100 nM.

These data come from patent US9399646B2 (Genentech, Inc., priority 2010, dated 2016).
